# Experiments:
# [1] = tested on: Mus musculus; test: Inhibition of […] ERK1/2 phosphorylation in human A375 cells xenografted po dosed athymic nude F344/N […] administered as single dose after 4 hrs by immunoblotting; type: functional, organism-based; conditions: A-375
# [2] = tested on: A-375; test: Antitumor activity against human A375 cells xenografted in athymic nude F344/N jcl-rnu/rnu […] assessed as tumor regression at >32.3 mg/kg, po administered BID for 2 weeks measured on day 14 relative to control; type: functional, organism-based
# [3] = tested on: Rhesus monkey; test: (§1) Ratio of AUC (0 to 24 hrs) in monkey assessed as 2-chloro-3-(1-cyanocyclopropyl)-N-[5-({2-[(cyclopropylcarbonyl) amino][1,3]thiazolo[5,4-b]pyridin-5-yl}oxy)-2-fluorophenyl] benzamide level to AUC (0 to 24hrs) in monkey assessed as tert-butyl 5-(2-(cyclopropanecarboxamido)thiazolo[5,4-b]pyridin-5-yloxy)-2-fluorophenylcarbamate level; type: ADME, organism-based, Macaca mulatta; conditions: in vivo
# [4] = tested on: Canis familiaris; test: AUC (0 to 24 hrs) in dog assessed as tert-butyl 2-chloro-3-(1-cyanocyclopropyl)benzoyl(5-(2-(cyclopropanecarboxamido)thiazolo[5,4-b]pyridin-5-yloxy)-2-fluorophenyl)carbamate level at 32.3 mg/kg, po administered as single dose; type: ADME, organism-based, Canis lupus familiaris, Plasma; design: time < 24 hr, dose 32.3 mg/kg, route oral; conditions: in vivo
# [5] = tested on: Rattus norvegicus; test: AUC (0 to 24 hrs) in nude rat assessed as tert-butyl 2-chloro-3-(1-cyanocyclopropyl)benzoyl(5-(2-(cyclopropanecarboxamido)thiazolo[5,4-b]pyridin-5-yloxy)-2-fluorophenyl)carbamate level at 12.9 mg/kg, po administered as single dose; type: ADME, organism-based, Plasma; design: time < 24 hr, dose 12.9 mg/kg, route oral; conditions: in vivo
# [6] = tested on: Liver microsomes; test: (§2) Ratio of prodrug conversion assessed a 2-chloro-3-(1-cyanocyclopropyl)-N-[5-({2-[(cyclopropylcarbonyl) amino][1,3]thiazolo[5,4-b]pyridin-5-yl}oxy)-2-fluorophenyl] benzamide level to drug metabolism assessed as tert-butyl 5-(2-(cyclopropanecarboxamido)thiazolo[5,4-b]pyridin-5-yloxy)-2-fluorophenylcarbamate level in rat liver microsomes; type: ADME, Microsome
# [7] = tested on: Liver; test: Prodrug conversion in dog liver microsomes assessed as 2-chloro-3-(1-cyanocyclopropyl)-N-[5-({2-[(cyclopropylcarbonyl) amino][1,3]thiazolo[5,4-b]pyridin-5-yl}oxy)-2-fluorophenyl] benzamide level at 10 umol/L after 2 hrs; type: ADME, Canis lupus familiaris, Microsome; conditions: 10 µM
# [8] = tested on: Mus musculus; test: AUC (0 to 24 hrs) in mouse assessed as 2-chloro-3-(1-cyanocyclopropyl)-N-[5-({2-[(cyclopropylcarbonyl) amino][1,3]thiazolo[5,4-b]pyridin-5-yl}oxy)-2-fluorophenyl] benzamide level at 32.3 mg/kg, po administered as single dose; type: ADME, organism-based, Plasma; design: time < 24 hr, dose 32.3 mg/kg, route oral; conditions: in vivo
# [9] = tested on: Liver microsomes; test: as §2, with “human” for “rat”; type: ADME, Microsome
# [10] = tested on: Mus musculus; test: Inhibition of VEGFR2-mediated ERK1/2 phosphorylation in human A375 cells xenografted athymic nude F344/N Jcl-rnu/rnu […] at 32.3 mg/kg, po administered as single dose after 4 hrs by immunoblotting relative to vehicle-treated control; values are per cent of control; conditions: A-375, po
# [11] = tested on: Liver; test: as §2, with “mouse” for “rat”; type: ADME, Microsome
# [12] = as §2, with “monkey” for “rat”; type: ADME, Macaca mulatta, Microsome; conditions: rhesus monkey
# [13] = tested on: Rattus norvegicus; test: AUC (0 to 24 hrs) in nude rat assessed as tert-butyl 5-(2-(cyclopropanecarboxamido)thiazolo[5,4-b]pyridin-5-yloxy)-2-fluorophenylcarbamate level at 12.9 mg/kg, po administered as single dose; type: ADME, organism-based, Plasma; design: time < 24 hr, dose 12.9 mg/kg, route oral; conditions: in vivo
# [14] = tested on: Rattus norvegicus; test: (§3) Ratio of AUC (0 to 24 hrs) assessed as 2-chloro-3-(1-cyanocyclopropyl)-N-[5-({2-[(cyclopropylcarbonyl) amino][1,3]thiazolo[5,4-b]pyridin-5-yl}oxy)-2-fluorophenyl] benzamide level to AUC (0 to 24hrs) assessed as tert-butyl 5-(2-(cyclopropanecarboxamido)thiazolo[5,4-b]pyridin-5-yloxy)-2-fluorophenylcarbamate level in nude rat at 12.9 mg/kg, po; type: ADME, organism-based; design: dose 12.9 mg/kg, route oral; conditions: in vivo
# [15] = tested on: Rhesus monkey; test: AUC (0 to 24 hrs) in monkey assessed as tert-butyl 5-(2-(cyclopropanecarboxamido)thiazolo[5,4-b]pyridin-5-yloxy)-2-fluorophenylcarbamate level at 32.3 mg/kg, po administered as single dose; type: ADME, organism-based, Macaca mulatta, Plasma; design: time < 24 hr, dose 32.3 mg/kg, route oral; conditions: in vivo
# [16] = tested on: Mus musculus; test: Inhibition of VEGFR2-mediated ERK1/2 phosphorylation in human A375 cells xenografted athymic nude F344/N Jcl-rnu/rnu […] at 12.9 mg/kg, po administered as single dose after 4 hrs by immunoblotting relative to vehicle-treated control; values are per cent of control; conditions: A-375, po
# [17] = tested on: Mus musculus; test: AUC (0 to 24 hrs) in mouse assessed as tert-butyl 5-(2-(cyclopropanecarboxamido)thiazolo[5,4-b]pyridin-5-yloxy)-2-fluorophenylcarbamate level at 32.3 mg/kg, po administered as single dose; type: ADME, organism-based, Plasma; design: time < 24 hr, dose 32.3 mg/kg, route oral; conditions: in vivo
# [18] = tested on: Rattus norvegicus; test: AUC (0 to 24 hrs) in nude rat assessed as 2-chloro-3-(1-cyanocyclopropyl)-N-[5-({2-[(cyclopropylcarbonyl) amino][1,3]thiazolo[5,4-b]pyridin-5-yl}oxy)-2-fluorophenyl] benzamide level at 64.6 mg/kg, po administered as single dose; type: ADME, organism-based, Plasma; design: time < 24 hr, dose 64.6 mg/kg, route oral; conditions: in vivo
# [19] = tested on: Rattus norvegicus; test: as §3, with “64.6” for “12.9”; type: ADME, organism-based; design: dose 64.6 mg/kg, route oral; conditions: in vivo
# [20] = tested on: Rattus norvegicus; test: AUC (0 to 24 hrs) in nude rat assessed as tert-butyl 5-(2-(cyclopropanecarboxamido)thiazolo[5,4-b]pyridin-5-yloxy)-2-fluorophenylcarbamate level at 64.6 mg/kg, po administered as single dose; type: ADME, organism-based, Plasma; design: time < 24 hr, dose 64.6 mg/kg, route oral; conditions: in vivo
# [21] = tested on: Rattus norvegicus; test: AUC (0 to 24 hrs) in nude rat assessed as 2-chloro-3-(1-cyanocyclopropyl)-N-[5-({2-[(cyclopropylcarbonyl) amino][1,3]thiazolo[5,4-b]pyridin-5-yl}oxy)-2-fluorophenyl] benzamide level at 12.9 mg/kg, po administered as single dose; type: ADME, organism-based, Plasma; design: time < 24 hr, dose 12.9 mg/kg, route oral; conditions: in vivo
# [22] = Thermodynamic solubility of the compound in JP2 solution at pH 6.8 in presence of 20 mM bile acid; type: physicochemical; conditions: JP2 solution with 20 mM bile acid, read-out: Therm_solubility
# [23] = tested on: Rhesus monkey; test: AUC (0 to 24 hrs) in monkey assessed as tert-butyl 2-chloro-3-(1-cyanocyclopropyl)benzoyl(5-(2-(cyclopropanecarboxamido)thiazolo[5,4-b]pyridin-5-yloxy)-2-fluorophenyl)carbamate level at 32.3 mg/kg, po administered as single dose; type: ADME, organism-based, Macaca mulatta, Plasma; design: time < 24 hr, dose 32.3 mg/kg, route oral; conditions: in vivo
# [24] = tested on: Canis familiaris; test: AUC (0 to 24 hrs) in dog assessed as tert-butyl 5-(2-(cyclopropanecarboxamido)thiazolo[5,4-b]pyridin-5-yloxy)-2-fluorophenylcarbamate level at 32.3 mg/kg, po administered as single dose; type: ADME, organism-based, Canis lupus familiaris, Plasma; design: time < 24 hr, dose 32.3 mg/kg, route oral; conditions: in vivo
# [25] = tested on: Rhesus monkey; test: AUC (0 to 24 hrs) in monkey assessed as 2-chloro-3-(1-cyanocyclopropyl)-N-[5-({2-[(cyclopropylcarbonyl) amino][1,3]thiazolo[5,4-b]pyridin-5-yl}oxy)-2-fluorophenyl] benzamide level at 32.3 mg/kg, po administered as single dose; type: ADME, organism-based, Macaca mulatta, Plasma; design: time < 24 hr, dose 32.3 mg/kg, route oral; conditions: in vivo
# [26] = tested on: Mus musculus; test: Inhibition of VEGFR2-mediated ERK1/2 phosphorylation in human A375 cells xenografted athymic nude F344/N Jcl-rnu/rnu […] at 129 mg/kg, po administered as single dose after 4 hrs by immunoblotting relative to vehicle-treated control; values are per cent of control; conditions: A-375, po
# [27] = tested on: Rattus norvegicus; test: AUC (0 to 24 hrs) in nude rat assessed as tert-butyl 2-chloro-3-(1-cyanocyclopropyl)benzoyl(5-(2-(cyclopropanecarboxamido)thiazolo[5,4-b]pyridin-5-yloxy)-2-fluorophenyl)carbamate level at 64.6 mg/kg, po administered as single dose; type: ADME, organism-based, Plasma; design: time < 24 hr, dose 64.6 mg/kg, route oral; conditions: in vivo
# [28] = tested on: Canis familiaris; test: AUC (0 to 24 hrs) in dog assessed as 2-chloro-3-(1-cyanocyclopropyl)-N-[5-({2-[(cyclopropylcarbonyl) amino][1,3]thiazolo[5,4-b]pyridin-5-yl}oxy)-2-fluorophenyl] benzamide level at 32.3 mg/kg, po administered as single dose; type: ADME, organism-based, Canis lupus familiaris, Plasma; design: time < 24 hr, dose 32.3 mg/kg, route oral; conditions: in vivo
# [29] = tested on: Liver; test: as §2, with “dog” for “rat”; type: ADME, Canis lupus familiaris, Microsome
# [30] = species: Canis familiaris; test: as §1, with “dog” for “monkey”; type: ADME, organism-based, Canis lupus familiaris; conditions: in vivo
# [31] = species: Mus musculus; test: as §1, with “mouse” for “monkey”; type: ADME, organism-based; conditions: in vivo
# [32] = tested on: A-375; test: Antitumor activity against human A375 cells xenografted in athymic nude F344/N jcl-rnu/rnu […] assessed as tumor regression at 129 mg/kg, po administered BID for 2 weeks measured on day 14 relative to control; type: functional
# [33] = biological target: Serine/threonine-protein kinase B-raf (Homo sapiens, UniProt P15056, V600E); test: Inhibition of BRAF V600E mutant
# [34] = Metabolic stability in human liver microsomes assessed as compound remaining at 30 uM after 60 mins by HPLC analysis; type: ADME, Microsome; conditions: read-out: Stability
# Sequence of Serine/threonine-protein kinase B-raf (P15056 2-766 V600E limits assumed): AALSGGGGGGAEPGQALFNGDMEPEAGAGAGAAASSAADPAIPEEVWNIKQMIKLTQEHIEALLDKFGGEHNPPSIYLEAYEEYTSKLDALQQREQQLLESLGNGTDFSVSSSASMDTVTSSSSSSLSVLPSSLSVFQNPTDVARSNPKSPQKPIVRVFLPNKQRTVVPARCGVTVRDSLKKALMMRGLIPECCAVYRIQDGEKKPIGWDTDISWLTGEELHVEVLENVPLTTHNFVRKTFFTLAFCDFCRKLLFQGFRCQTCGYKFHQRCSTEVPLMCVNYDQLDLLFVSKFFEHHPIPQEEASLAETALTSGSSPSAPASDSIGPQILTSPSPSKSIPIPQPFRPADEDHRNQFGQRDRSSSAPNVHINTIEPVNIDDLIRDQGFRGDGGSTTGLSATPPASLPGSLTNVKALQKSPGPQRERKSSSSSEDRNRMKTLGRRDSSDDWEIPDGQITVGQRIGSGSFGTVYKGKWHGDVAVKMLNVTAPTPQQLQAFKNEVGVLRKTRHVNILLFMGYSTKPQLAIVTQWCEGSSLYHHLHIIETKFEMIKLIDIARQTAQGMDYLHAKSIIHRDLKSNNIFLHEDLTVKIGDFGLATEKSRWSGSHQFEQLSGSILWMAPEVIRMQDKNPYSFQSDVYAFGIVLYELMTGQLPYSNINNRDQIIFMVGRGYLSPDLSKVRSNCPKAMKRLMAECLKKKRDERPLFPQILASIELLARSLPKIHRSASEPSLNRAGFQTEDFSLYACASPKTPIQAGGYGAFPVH
smiles,measurement,setting,value
CC(C)(C)OC(=O)N(C(=O)c1cccc(C2(C#N)CC2)c1Cl)c1cc(Oc2ccc3nc(NC(=O)C4CC4)sc3n2)ccc1F,inhibition,[1],Dose-dependent effect
same,Activity,[2],Dose-dependent effect
CC(=O)O.CC(C)(C)OC(=O)N(C(=O)c1cccc(C2(C#N)CC2)c1Cl)c1cc(Oc2ccc3nc(NC(=O)C4CC4)sc3n2)ccc1F,Ratio AUC,[3],330
same,AUC,[4],530 ng·h/mL
same,AUC,[5],20 ng·h/mL
same,Ratio,[6],0.76
same,Drug metabolism,[7],2.3%
same,AUC,[8],4900 ng·h/mL
same,Ratio,[9],152
same,"level, % of control at 32.3 mg/kg",[10],34.1%
same,Ratio,[11],19
same,Ratio,[12],3
same,AUC,[13],570 ng·h/mL
same,Ratio AUC,[14],2.4
same,AUC,[15],30 ng·h/mL
same,"level, % of control at 12.9 mg/kg",[16],52.7%
same,AUC,[17],500 ng·h/mL
same,AUC,[18],4280 ng·h/mL
same,Ratio AUC,[19],2.4
same,AUC,[20],1800 ng·h/mL
same,AUC,[21],1390 ng·h/mL
same,solubility thermodynamic,[22],19 µg/mL
same,AUC,[23],530 ng·h/mL
same,AUC,[24],630 ng·h/mL
same,AUC,[25],9900 ng·h/mL
same,"level, % of control at 129 mg/kg",[26],20.1%
same,AUC,[27],80 ng·h/mL
same,AUC,[28],25330 ng·h/mL
same,Ratio,[29],3.3
same,Ratio AUC,[30],40
same,Ratio AUC,[31],9.8
same,T/C,[32],6.4%
CC(C)(C)OC(=O)Nc1cc(Oc2ccc3nc(NC(=O)C4CC4)sc3n2)ccc1F,IC50,[33],2000 nM
CC(C)(C)OC(=O)N(C(=O)c1cccc(C2(C#N)CC2)c1Cl)c1cc(Oc2ccc3nc(NC(=O)C4CC4)sc3n2)ccc1F.O,solubility thermodynamic,[22],49 µg/mL
CCOC(=O)N(C(=O)c1cccc(C2(C#N)CC2)c1Cl)c1cc(Oc2ccc3nc(NC(=O)C4CC4)sc3n2)ccc1F,solubility thermodynamic,[22],0.79 µg/mL
N#CC1(c2cccc(C(=O)Nc3cc(Oc4ccc5nc(NC(=O)C6CC6)sc5n4)ccc3F)c2Cl)CC1,solubility thermodynamic,[22],3.6 µg/mL
same,"remaining at 1 h, 30 µM",[34],110%
CC(=O)Nc1nc2ccc(Oc3ccc(F)c(NC(=O)c4cccc(C5(C#N)CC5)c4Cl)c3)nc2s1,"remaining at 1 h, 30 µM",[34],78.5%
CC(C)(C)OC(=O)N(C(=O)c1cccc(C2(C#N)CC2)c1Cl)c1cc(Oc2ccc3nc(NC(=O)C4CC4)sc3n2)ccc1F.CCO,solubility thermodynamic,[22],4.2 µg/mL
N#CC1(c2cccc(C(=O)N(C(=O)C3CC3)c3cc(Oc4ccc5nc(NC(=O)C6CC6)sc5n4)ccc3F)c2Cl)CC1,solubility thermodynamic,[22],3.2 µg/mL

# Source: ChEMBL document CHEMBL2062432, “Design and synthesis of novel DFG-out RAF/vascular endothelial growth factor receptor 2 (VEGFR2) inhibitors: 2. Synthesis and characterization of a novel imide-type prodrug for improving oral absorption” (Bioorg Med Chem, 2012)
